From patent publication US10130624B2, “Pharmaceutical compositions of amlodipine and benazepril” (LUPIN LIMITED, priority 2005, dated 2018)

Experiment: Preformulation compatibility study: amlodipine and benazepril blends, with or without excipients, at accelerated stability conditions; colour change and degradation products by HPLC
Assay type: physicochemical
Details: without any excipients
Method: The studies were carried out by blending amlodipine & benazepril and then mixing with excipients in amounts intended to be used in the proposed compositions. For example, amlodipine:benazepril:diluent were blended in the ratio 0.7:1:10, amlodipine:benazepril:disintegrant were blended in the ratio 0.7:1:2, amlodipine:benazepril:binder were blended in the ratio 0.7:1:2, and amlodipine:benazepril:lubricant were blended in the ratio 0.7:1:0.5.

SMILES: CCOC(=O)[C@H](CCc1ccccc1)N[C@H]1CCc2ccccc2N(CC(=O)O)C1=O [Benazepril alone, Benazepril]
- Related substances: Amlodipine impurity D (Initial): 0.000%
- Related substances: Benazepril impurity C (Initial): 0.130%
- Related substances: Benazepril impurity G (Initial): 0.060%
- Related substances: Total impurities (Initial): 0.260%
- Related substances: Amlodipine impurity D (charged on stability, 3M): 0.000%
- Related substances: Benazepril impurity C (charged on stability, 3M): 0.143%
- Related substances: Benazepril impurity G (charged on stability, 3M): 0.000%
- Related substances: Total impurities (charged on stability, 3M): 0.267%
